For one test, the system named is K562 cells. The experiment in a line: K562 cell proliferation assay (CellTiter-Glo). The format is cell-based. To be noted: Homo sapiens, K562, 72 h, CellTiter-Glo viability, read-out: Cell Line (IC50, nM) K562. The method, boiled down: (§1)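 Cells in IMDM/10% FBS seeded at 2,000 (K562) or 1,500 (HL60) per well, exposed to serially diluted compounds for 72 h at 37 °C, 5% CO2. Viability by CellTiter-Glo luminescence, normalized between DMSO (high) and cell-free media (low) controls.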

In a further test the target is T1, ABL1 (Homo sapiens, UniProt P00519).
T1 construct: purchased Carna Biosciences
Description: Luminescence-based ABL kinase assay (ADP-Glo, 300 μM ATP). It is filed as biochemical. The method, boiled down: (§2)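 ABL1 (3.325 nM in the enzyme solution) was preincubated with compound for 30 min at RT in HEPES pH 7.5 buffer with MgCl2, EGTA, DTT, BSA and Brij-35. Adding Peptide 2 and ATP (6 μM and 1.2 mM in the start solution) began a 90 min RT reaction. ADP-Glo luminescence gave % activity and IC50.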

Another test has as its target ABL1 (T315I) (Homo sapiens, UniProt P00519, T315I). The experiment in a line: Luminescence-based ABL kinase assay (ADP-Glo, 300 μM ATP), T315I mutant. It is filed as biochemical. The method, boiled down:
as §2
For orientation: ADP-Glo first removes unused ATP, then detects ADP through luciferase.

The test system of a further test is pCRKL in K562 cells. The experiment in a line: pCRKL ELISA assay in K562 cells. The format is cell-based. Conditions: Homo sapiens, 1.5 h, 90 minutes incubation, read-out: PCRKL ELISA, Cell Line IC50 (nM) K562. As to the method:
(§3) K562 or Ba/F3 ABL T315I cells (2.0*10^5 cells/100 μl/well) were seeded in 96 well (Corning, cat #3799). Compounds were dissolved in DMSO, serially diluted in DMSO and then were added, mixed, and incubated for 90 minutes at 37° C., 5% CO2. Following the 90-minute incubation, plates were centrifuged for 5 min at 3000 RPM and supernatant was removed from each well. Cells were washed 3 times with 150 μl PBS prior to addition of 100 μl cell RIPA lysis buffer (Boston BioProducts, cat #BP-115D) supplied with 1×complete ULTRA cocktail inhibitor (Roche, 05892791001) and 1×PhosSTOP Phosphatase Inhibitor Cocktail Tablets (Roche, 04906837001). Cells were incubated with lysis buffer for 1 hour at 4° C. prior to storage at −80 C.
(§4) A capture antibody able to detect phosphorylated and non-phosphorylated CRKL (R&D Systems, cat #AF5127) was added to Meso Scale Discovery (MSD) standard bind plates (MSD, cat #L15XA-3) at 5 ug/mL and incubated at 4° C. overnight. The next day, plates were washed with PBS+0.05% Tween20 (PBST) and 150 μl of 5% BSA blocking solution was added for 1 hour at room temperature with shaking. Plates were washed with PBST. Lysates were thawed and 30 μl of lysate was added to the MSD plates and incubated for 2 hours at room temperature with shaking. MSD plates were washed with PBST and 30 μl of a detection antibody that binds phosphorylated pCRKL (R&D Systems, cat #MAB6910) was added at 1 μg/mL to each well. Plates were incubated for 1 hour at room temperature with shaking. Plates were washed with PBST prior to addition of 30 μl of a sulfo tagged goat anti mouse detection antibody (MSD cat #R32AC-1). Plates were incubated for 1 hour at room temperature with shaking. Plates were washed with PBST prior to addition of 150 ul of 1×MSD read buffer T (MSD, cat 4R92TC-2). Electrochemiluminescence (ECLU) was read on an MSD plate reader (Meso Scale Discovery). The remaining activity by calculated as follows: 00 Relative activity=100×(ELCUsample−ECLULC)/(ECLUHC−ECLULC). The low and high controls (LC/HC) are generated from lysate from wells without cells or with cells treated with 0.1% DMSO, respectively. IC50 values were calculated using XLFit software using a nonlinear regression model with a sigmoidal dose response and are shown in Table 4 and Table 5 below.
(In general: ELISA stands for enzyme-linked immunosorbent assay.)

Test [1] has as its system pCRKL in Ba/F3 ABL1 (T315I) cells. The experiment in a line: pCRKL ELISA assay in Ba/F3 ABL T315I cells. Conditions: Mus musculus, BaF3, 1.5 h, 90 minutes incubation, read-out: pCRKL ELISA, Cell Line IC50 (nM) Ba/F3 ABL1 (T315I). The format is cell-based. As for the experimental part: as §3, §4
For a further test, the system named is HL60 cells. The experiment in a line: HL60 cell proliferation assay (CellTiter-Glo). The format is cell-based. Conditions: Homo sapiens, HL-60, 72 h, CellTiter-Glo viability, read-out: Cell Line (IC50, nM) HL60. The method, boiled down:
as §1
A general note: ATP-based viability assays read luminescence as a measure of living cells.

For `COc1cccc(OC)c1-c1c[nH]c2nc(NC(=O)C3CC3CN3CCNCC3)ccc12` (single isomer, unassigned) [Example S150, Enantiomer 1, N-[3-(2,6-dimethoxyphenyl)-1H-pyrrolo[2,3-b]pyridin-6-yl]-2-(piperazin-1-ylmethyl)cyclopropane-1-carboxamide], the IC50 in the test on K562 cells was determined as 40.5 nM; on ABL1, 5.42 nM; against ABL1 (T315I), 1.73 nM; with pCRKL in K562 cells, 453 nM; in test [1], 1460 nM.

With `COc1cc2cn[nH]c2cc1-c1c[nH]c2nc(NC(=O)[C@@H]3C[C@@H]3F)ccc12` [Compound 58, (1S,2S)-2-fluoro-N-[3-(5-methoxy-1H-indazol-6-yl)-1H-pyrrolo[2,3-b]pyridin-6-yl]cyclopropane-1-carboxamide], the IC50 was 132 nM in the test on K562 cells; greater than 10000 nM with HL60 cells; 2.92 nM at ABL1; 3.4 nM on ABL1 (T315I); 281 nM with pCRKL in K562 cells.

On to `COc1nc2nc[nH]c2cc1-c1c[nH]c2nc(NC(=O)C3CC3)ccc12` [Compound 61, N-(3-[5-methoxy-1H-imidazo[4,5-b]pyridin-6-yl]-1H-pyrrolo[2,3-b]pyridin-6-yl)cyclopropanecarboxamide], for which the IC50 with K562 cells is 36.9 nM; with HL60 cells, greater than 10000 nM; against ABL1, 3.28 nM; at ABL1 (T315I), 5.08 nM; in the test with pCRKL in K562 cells, 88.4 nM.

Consider `CCOc1ncccc1-c1c[nH]c2nc(NC(=O)[C@@H]3C[C@@H]3F)ccc12` [Compound 62, (1S,2S)—N-(3-(2-ethoxypyridin-3-yl)-1H-pyrrolo[2,3-b]pyridin-6-yl)-2-fluorocyclopropane-1-carboxamide], for which the IC50 is 137 nM with K562 cells; greater than 10000 nM in the test on HL60 cells; 20.8 nM against ABL1; 43 nM on ABL1 (T315I); 171 nM in the test with pCRKL in K562 cells.

For `CCOc1ncccc1-c1c[nH]c2nc(NC(=O)[C@H]3C[C@H]3F)ccc12` [Compound 63, (1R,2R)—N-(3-(2-ethoxypyridin-3-yl)-1H-pyrrolo[2,3-b]pyridin-6-yl)-2-fluorocyclopropane-1-carboxamide], the IC50 is 255 nM in the test with K562 cells; greater than 10000 nM in the test with HL60 cells; 40.7 nM against ABL1; 64.5 nM on ABL1 (T315I); 328 nM in the test on pCRKL in K562 cells.

On to `COc1cccc(F)c1-c1n[nH]c2nc(NC(=O)[C@@H]3C[C@@H]3F)ccc12` [Compound 66, (1S,2S)-2-fluoro-N-[3-(2-fluoro-6-methoxyphenyl)-1H-pyrazolo[3,4-b]pyridin-6-yl]cyclopropane-1-carboxamide], for which the IC50 is 603 nM with K562 cells; greater than 10000 nM in the test with HL60 cells; 91.5 nM against ABL1; 38.7 nM at ABL1 (T315I); 702 nM with pCRKL in K562 cells.

Take `COc1ncc(F)cc1-c1n[nH]c2nc(NC(=O)[C@@H]3C[C@@H]3F)ccc12` [Compound 74, (1S,2S)-2-fluoro-N-[3-(5-fluoro-2-methoxypyridin-3-yl)-1H-pyrazolo[3,4-b]pyridin-6-yl]cyclopropane-1-carboxamide]: the IC50 in the test with K562 cells was 351 nM; with HL60 cells it was greater than 10000 nM; against ABL1, 55.6 nM; at ABL1 (T315I), 63 nM; in the test on pCRKL in K562 cells it was 572 nM.

Regarding `COc1ncccc1-c1n[nH]c2nc(NC(=O)[C@@H]3C[C@@H]3F)ccc12` [Compound 77, (1S,2S)-2-fluoro-N-[3-(2-methoxypyridin-3-yl)-1H-pyrazolo[3,4-b]pyridin-6-yl]cyclopropane-1-carboxamide], the IC50 with K562 cells is 727 nM; in the test on HL60 cells, greater than 10000 nM; on ABL1, 106 nM; at ABL1 (T315I), 137 nM; in the test on pCRKL in K562 cells, 1120 nM.

Consider `COc1cc2[nH]ncc2cc1-c1n[nH]c2nc(NC(=O)[C@@H]3C[C@@H]3F)ccc12` [Compound 82, (1S,2S)-2-fluoro-N-[3-(6-methoxy-1H-indazol-5-yl)-1H-pyrazolo[3,4-b]pyridin-6-yl]cyclopropane-1-carboxamide], for which the IC50 was 437 nM with K562 cells; greater than 10000 nM with HL60 cells; 13.5 nM at ABL1; 20.5 nM on ABL1 (T315I); 1050 nM in the test with pCRKL in K562 cells.

Turning to `COc1cc2ncsc2cc1-c1c[nH]c2nc(NC(=O)[C@@H]3C[C@@H]3F)ccc12` [Compound 86, (1S,2S)-2-fluoro-N-(3-(5-methoxybenzo[d]thiazol-6-yl)-1H-pyrrolo[2,3-b]pyridin-6-yl)cyclopropane-1-carboxamide], the IC50 in the test with K562 cells was 30.5 nM; with HL60 cells it was greater than 10000 nM; on ABL1, 5.97 nM; on ABL1 (T315I) it was 5.48 nM; in test [1], 84.2 nM.

On to `COc1ncc(F)c(OC)c1-c1c[nH]c2nc(NC(=O)NCCN3CCN(C)CC3)ccc12` [Compound 116, 3-[3-(5-fluoro-2,4-dimethoxypyridin-3-yl)-1H-pyrrolo[2,3-b]pyridin-6-yl]-1-[2-(4-methylpiperazin-1-yl)ethyl]urea], for which the IC50 in the test with K562 cells was 142 nM; with HL60 cells, greater than 10000 nM; on ABL1, 49.4 nM; against ABL1 (T315I), 59.3 nM; in test [1], 1060 nM.

`COc1cccc(OC)c1-c1c[nH]c2nc(NC(=O)NCCN3CCN(C)CC3)ccc12` [Compound 117, 3-[3-(2,6-dimethoxyphenyl)-1H-pyrrolo[2,3-b]pyridin-6-yl]-1-[2-(4-methylpiperazin-1-yl)ethyl]urea]: the IC50 with K562 cells was 67.1 nM; in the test on HL60 cells, greater than 10000 nM; against ABL1, 11.3 nM; against ABL1 (T315I), 9.08 nM; in test [1] it was 124 nM.

With `COc1cccc(OC)c1-c1c[nH]c2nc(NC(=O)NCCCN(C)C)ccc12` [Compound 131, 1-[3-(2,6-dimethoxyphenyl)-1H-pyrrolo[2,3-b]pyridin-6-yl]-3-[3-(dimethylamino)propyl]urea], the IC50 is 83.3 nM with K562 cells; greater than 10000 nM in the test with HL60 cells; 42.7 nM on ABL1; 28.1 nM against ABL1 (T315I); 272 nM in the test with pCRKL in K562 cells.

In the case of `COc1c(-c2c[nH]c3nc(NC(=O)[C@@H]4C[C@@H]4F)ccc23)cc2scnc2c1F` [Compound 133, (1S,2S)-2-fluoro-N-[3-(4-fluoro-5-methoxy-1,3-benzothiazol-6-yl)-1H-pyrrolo[2,3-b]pyridin-6-yl]cyclopropane-1-carboxamide], the IC50 in the test on K562 cells was 9.36 nM; in the test on HL60 cells it was 4040 nM; on ABL1 it was 3.57 nM; against ABL1 (T315I), 6.1 nM; in the test on pCRKL in K562 cells, 278 nM.

As to `COc1cccc(OC)c1-c1c[nH]c2nc(NC(=O)NCCN3CCNCC3)ccc12` [Compound 135, 3-[3-(2,6-dimethoxyphenyl)-1H-pyrrolo[2,3-b]pyridin-6-yl]-1-[2-(piperazin-1-yl)ethyl]urea], the IC50 in the test with K562 cells was 165 nM; with HL60 cells it was greater than 10000 nM; on ABL1, 24.9 nM; against ABL1 (T315I), 15.8 nM; in the test on pCRKL in K562 cells, 1210 nM.

Regarding `COc1ccc(F)c(OC)c1-c1c[nH]c2nc(NC(=O)NCCN3CCN(C)CC3)ccc12` [Compound 145, 3-[3-(3-fluoro-2,6-dimethoxyphenyl)-1H-pyrrolo[2,3-b]pyridin-6-yl]-1-[2-(4-methylpiperazin-1-yl)ethyl]urea], the IC50 with K562 cells was 120 nM; with HL60 cells it was greater than 10000 nM; against ABL1, 51.6 nM; on ABL1 (T315I), 44.3 nM; in the test with pCRKL in K562 cells, 399 nM.

(Values after patent publication US20240043420A1, “7-AZAINDOLE COMPOUNDS FOR INHIBITION OF BCR-ABL TYROSINE KINASES” (EnLiven Therapeutics, Inc., priority 2020, published 2024).)
